Data from paper PMC3742649 (Endocrine, 2013).
pIC50, pKi: −log10 of the molar value. “Also recorded” adds a separate entry of the source. Where a SMILES comes first, the peptide text is derived from it.

What was measured:
[1] = target: T1, novel non-AT1, non-AT2 angiotensin binding site (neurolysin) (Rattus norvegicus, UniProt P42676); experiment: Competition binding of 125I-Sar1,Ile8 Ang II in rat testis membranes; settings: for inhibition of 125I-SI Ang II binding in testis at concentrations up to 1 mM: rat testis
[2] = target: T1, novel non-AT1, non-AT2 angiotensin binding site (neurolysin); experiment: Competition binding of 125I-Sar1,Ile8 Ang II in rat brain membranes; settings: for inhibition of 125I-SI Ang II binding in brain at concentrations up to 1 mM: rat brain
neurolysin = settings: read-out: KI for neurolysin; reported value; cited from earlier work
[3] = listed as Proline-Isoleucine dipeptide

T1 sequence (P42676 38-704): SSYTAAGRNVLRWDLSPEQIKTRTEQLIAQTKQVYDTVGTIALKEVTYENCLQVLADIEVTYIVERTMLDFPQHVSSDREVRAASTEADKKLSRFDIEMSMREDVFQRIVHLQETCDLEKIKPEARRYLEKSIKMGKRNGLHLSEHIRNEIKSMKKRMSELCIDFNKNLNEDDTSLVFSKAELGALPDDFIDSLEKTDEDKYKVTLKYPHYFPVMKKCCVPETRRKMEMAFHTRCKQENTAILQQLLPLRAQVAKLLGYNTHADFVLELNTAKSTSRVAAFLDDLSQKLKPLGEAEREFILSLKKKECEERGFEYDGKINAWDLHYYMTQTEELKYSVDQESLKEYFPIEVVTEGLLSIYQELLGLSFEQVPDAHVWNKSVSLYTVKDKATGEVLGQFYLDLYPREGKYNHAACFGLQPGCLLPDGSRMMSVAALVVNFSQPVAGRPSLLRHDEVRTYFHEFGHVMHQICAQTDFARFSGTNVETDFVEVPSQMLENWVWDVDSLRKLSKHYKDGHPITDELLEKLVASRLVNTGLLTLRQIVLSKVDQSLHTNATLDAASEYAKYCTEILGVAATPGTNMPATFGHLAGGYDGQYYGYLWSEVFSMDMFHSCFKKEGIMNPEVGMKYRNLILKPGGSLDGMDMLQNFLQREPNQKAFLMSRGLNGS

Compound: CC[C@H](C)[C@H](NC(=O)[C@H](CCCN=C(N)N)NC(=O)[C@H](CCCN=C(N)N)NC(=O)[C@H](CC(C)C)NC(=O)[C@H](Cc1ccccc1)NC(=O)CNC(=O)CNC(=O)[C@@H](N)Cc1ccc(O)cc1)C(=O)O [Dynorphin A (1–8)]
- pIC50 [1]: 5.66

Compound: CC[C@H](C)[C@H](NC(=O)[C@@H]1CCCN1)C(=O)O [Pro-Ile, proline-isoleucine dipeptide] (H-Pro-Ile-OH)
- inhibition of 125I-SI Ang II binding in brain at concentrations up to 1 mM [2]: no inhibition; also recorded: failed to inhibit; also recorded: did not inhibit
- inhibition of 125I-SI Ang II binding in brain at concentrations up to 1 mM [2, 3]: inactive
- inhibition of 125I-SI Ang II binding in testis at concentrations up to 1 mM [1]: no inhibition; also recorded: failed to inhibit; also recorded: did not inhibit
- inhibition of 125I-SI Ang II binding in testis at concentrations up to 1 mM [1, 3]: inactive
- pKi (neurolysin): 4.05

Compound: CC[C@H](C)[C@H](NC(=O)[C@@H]1CCCN1C(=O)[C@H](Cc1c[nH]cn1)NC(=O)[C@@H](NC(=O)[C@H](Cc1ccc(O)cc1)NC(=O)[C@@H](NC(=O)[C@H](CCCN=C(N)N)NC(=O)CNC)C(C)C)[C@@H](C)CC)C(=O)O [SI Ang II, Sar^1, Ile^8 angiotensin II]
- pIC50 ([2]; IC50 in brain, rat brain membranes, Figure 1 Panel A): 7.09
- pIC50 ([1]; IC50 in testis, rat testis membranes, Figure 1 Panel A): 6.90
